Source: patent US6287572A, “Anti-HIV peptides and proteins” (Oxford Biomedica (UK) Limited, priority 1997, dated 2001)
“Also recorded” adds a separate entry of the source.

What was measured:
HIV-1 = settings: Neidrig et al 1994; cited from earlier work
HIV-1IIIB virus [1] = experiment: Peptide inhibition experiment, U937 culture; format: cell-based; settings: peptide 200 mg/ml, RT activity in supernatant
Method: (§1) A series of overlapping p17 derived 1 5mer peptides were used. The peptides were dissolved in phosphate-buffered saline pH 7.0 and used at a final concentration of 200 mg/ml. For each peptide, 2×10^5 U937 cells were pelleted and resuspended in […] media containing […] of a stock of HIV-1IIIB virus (giving a multiplicity of infection of 0.25) and 200 mg/ml of the appropriate peptide. Following incubation for two days, the cells were pelleted and resuspended in fresh media containing peptide. After a further three days incubation, […] of the culture was removed and added to 1×10^5 C8166 cells in a total volume of […] with the appropriate peptide. Samples of both the U937 and C8166 culture supernatants were taken after a further two and three days incubation and assayed for RT activity. In addition, the C8166 cells were visually inspected for the appearance of syncytia on day three.

HIV-1IIIB virus [2] = experiment: Peptide inhibition experiment, C8166 culture; format: cell-based; settings: peptide 200 mg/ml, RT activity in supernatant
Method: as §1

## 23 to 46: p17 peptide spanning residues 23 to 46 of previous studies (Neidrig et al 1994) (GGKKKYKLKHIVWASRELERFAVN; Matrix protein p17; UniProt P04591 24-47, looked up, fragment)
HIV-1
  inhibitory activity of peptide in previous studies: no inhibitory activity; also recorded: no inhibitory effect

## 47 to 59: inhibitory p17 peptide spanning residues 47 to 59 of previous studies (Neidrig et al 1994) (PGLLETSEGCRQI; Matrix protein p17; UniProt P04591 48-60, looked up, fragment)
HIV-1
  inhibitory activity of peptide in previous studies: inhibitory

## 51-65: p17-derived 15mer peptide, corresponding p17 residues 51-65 (ETSEGCRQILGQLQP; Matrix protein p17; UniProt P04591 52-66, looked up, fragment) [Mutant 51-65]
HIV-1IIIB virus [1]; day 7
  RT titer, U937 day 7: 14.8 × 10^3 cpm/ml
HIV-1IIIB virus [1]; day 8
  RT titer, U937 day 8: 47.0 × 10^3 cpm/ml
HIV-1IIIB virus [2]; day 2
  RT titer, C8166 day 2: 19.9 × 10^3 cpm/ml
HIV-1IIIB virus [2]; day 3
  RT titer, C8166 day 3: 33.6 × 10^3 cpm/ml
